Legend:
Type in all cases: in vivo
Kochia (Kochia scoparia) [1] = assay: Test A preemergence; settings: Bassia scoparia, pre-emergence, 240 h, preemergence, 0 to 100 scale where 0 is no effect and 100 is complete control, read-out: Kochia plant response rating
How it was run: (§1)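 In a loam soil and sand blend, planted seeds got a preemergence directed soil spray, and young plants at the one- to two-leaf stage, 2–10 cm high, got a postemergence application; ~10 d greenhouse hold; injury rated visually, 0 = none, 100 = complete control.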

[2] = test system: giant foxtail (Setaria faberii); assay: Test A preemergence; settings: Setaria faberi, pre-emergence, 240 h, preemergence, 0 to 100 scale where 0 is no effect and 100 is complete control, read-out: Foxtail, Giant plant response rating
How it was run: as §1

[3] = test system: pigweed (Amaranthus retroflexus); assay: Test A preemergence; settings: Amaranthus retroflexus, pre-emergence, 240 h, preemergence, 0 to 100 scale where 0 is no effect and 100 is complete control, read-out: Pigweed plant response rating
[4] = test system: ragweed (common ragweed, Ambrosia elatior); assay: Test A preemergence; settings: Ambrosia artemisiifolia, pre-emergence, 240 h, preemergence, 0 to 100 scale where 0 is no effect and 100 is complete control, read-out: Ragweed plant response rating
How it was run: as §1

[5] = test system: ryegrass, Italian (Italian ryegrass, Lolium multiflorum); assay: Test A preemergence; settings: Lolium multiflorum, pre-emergence, 240 h, preemergence, 0 to 100 scale where 0 is no effect and 100 is complete control, read-out: Ryegrass, Italian plant response rating
How it was run: as §1

[6] = test system: Galium (catchweed bedstraw, Galium aparine); assay: Test A postemergence; settings: Galium, post-emergence, 240 h, postemergence
How it was run: as §1

Kochia (Kochia scoparia) [7] = assay: Test A postemergence; settings: Bassia scoparia, post-emergence, 240 h, postemergence
How it was run: as §1

[8] = test system: barnyardgrass (Echinochloa crus-galli); assay: Test A postemergence; settings: Echinochloa crus-galli, post-emergence, 240 h, postemergence
How it was run: as §1

[9] = test system: blackgrass (Alopecurus myosuroides); assay: Test A postemergence; settings: Alopecurus myosuroides, post-emergence, 240 h, postemergence
How it was run: as §1

corn (Zea mays) = assay: Test A postemergence; settings: Zea mays, post-emergence, 240 h, postemergence
How it was run: as §1

[10] = test system: giant foxtail (Setaria faberii); assay: Test A postemergence; settings: Setaria faberi, post-emergence, 240 h, postemergence
How it was run: as §1

[11] = test system: pigweed (Amaranthus retroflexus); assay: Test A postemergence; settings: Amaranthus retroflexus, post-emergence, 240 h, postemergence
How it was run: as §1

[12] = test system: ragweed (common ragweed, Ambrosia elatior); assay: Test A postemergence; settings: Ambrosia artemisiifolia, post-emergence, 240 h, postemergence
How it was run: as §1

[13] = test system: ryegrass, Italian (Italian ryegrass, Lolium multiflorum); assay: Test A postemergence; settings: Lolium multiflorum, post-emergence, 240 h, postemergence
How it was run: as §1

[14] = test system: wheat (Triticum aestivum); assay: Test A postemergence; settings: Triticum aestivum, post-emergence, 240 h, postemergence
How it was run: as §1

[15] = 125 g ai/ha, visual injury rating, approximately 10 d

**Q.** `COc1cc(C(F)(F)F)ccc1[C@H]1CN(C)C(=O)[C@@H]1C(=O)Nc1cccc(F)c1C` [Compound 1205] was tested. Which pest or weed control at 125 g/ha (Kochia (Kochia scoparia) [1]; [15]) did it give?
**A.** Its pest or weed control at 125 g/ha is 30%.

**Q.** And the pest or weed control at 500 g/ha (Kochia (Kochia scoparia) [1]; 500 g ai/ha)?
**A.** Its pest or weed control at 500 g/ha is 30%.

**Q.** What about the pest or weed control at 125 g/ha [2, 15] of the same molecule?
**A.** Its pest or weed control at 125 g/ha is 100%.

**Q.** And the pest or weed control at 500 g/ha ([2]; 500 g ai/ha)?
**A.** The pest or weed control at 500 g/ha was 100%.

**Q.** And the pest or weed control at 125 g/ha [3, 15]?
**A.** The pest or weed control at 125 g/ha was 0%.

**Q.** What about the pest or weed control at 500 g/ha ([3]; 500 g ai/ha) of the same molecule?
**A.** The pest or weed control at 500 g/ha was 30%.

**Q.** What about the pest or weed control at 125 g/ha [4, 15] of the same molecule?
**A.** Its pest or weed control at 125 g/ha is 0%.

**Q.** What about the pest or weed control at 500 g/ha ([4]; 500 g ai/ha) of the same molecule?
**A.** The pest or weed control at 500 g/ha was 0%.

**Q.** What about the pest or weed control at 125 g/ha [5, 15] of the same molecule?
**A.** The pest or weed control at 125 g/ha was 40%.

**Q.** What about the pest or weed control at 500 g/ha ([5]; 500 g ai/ha) of the same molecule?
**A.** The pest or weed control at 500 g/ha was 70%.

**Q.** And the pest or weed control at 125 g/ha ([6]; 125 g ai/ha, visual injury vs untreated controls after approx. 10 d, 0 = no effect, 100 = complete control, read-out: Galium plant response rating (0 to 100 scale))?
**A.** The pest or weed control at 125 g/ha was 20%.

**Q.** What about the pest or weed control at 500 g/ha ([6]; 500 g ai/ha, 0 to 100 scale, 0 is no effect, 100 is complete control, read-out: Galium plant response rating) of the same molecule?
**A.** Its pest or weed control at 500 g/ha is 40%.

**Q.** And the pest or weed control at 125 g/ha (Kochia (Kochia scoparia) [7]; 125 g ai/ha, visual injury vs untreated controls after approx. 10 d, 0 = no effect, 100 = complete control, read-out: Kochia plant response rating (0 to 100 scale))?
**A.** Its pest or weed control at 125 g/ha is 0%.

**Q.** And the pest or weed control at 500 g/ha (Kochia (Kochia scoparia) [7]; 500 g ai/ha, 0 to 100 scale, 0 is no effect, 100 is complete control, read-out: Kochia plant response rating)?
**A.** Its pest or weed control at 500 g/ha is 0%.

**Q.** What about the pest or weed control at 125 g/ha ([8]; 125 g ai/ha, visual injury vs untreated controls after approx. 10 d, 0 = no effect, 100 = complete control, read-out: Barnyardgrass plant response rating (0 to 100 scale)) of the same molecule?
**A.** Its pest or weed control at 125 g/ha is 40%.

**Q.** What about the pest or weed control at 500 g/ha ([8]; 500 g ai/ha, 0 to 100 scale, 0 is no effect, 100 is complete control, read-out: Barnyardgrass plant response rating) of the same molecule?
**A.** Its pest or weed control at 500 g/ha is 50%.

**Q.** What about the pest or weed control at 125 g/ha ([9]; 125 g ai/ha, visual injury vs untreated controls after approx. 10 d, 0 = no effect, 100 = complete control, read-out: Blackgrass plant response rating (0 to 100 scale)) of the same molecule?
**A.** The pest or weed control at 125 g/ha was 0%.

**Q.** And the pest or weed control at 500 g/ha ([9]; 500 g ai/ha, 0 to 100 scale, 0 is no effect, 100 is complete control, read-out: Blackgrass plant response rating)?
**A.** The pest or weed control at 500 g/ha was 20%.

**Q.** What about the plant injury at 125 g/ha (corn (Zea mays); 125 g ai/ha, visual injury vs untreated controls after approx. 10 d, 0 = no effect, 100 = complete control, read-out: Corn plant response rating (0 to 100 scale)) of the same molecule?
**A.** The plant injury at 125 g/ha was 70%.

**Q.** And the plant injury at 500 g/ha (corn (Zea mays); 500 g ai/ha, 0 to 100 scale, 0 is no effect, 100 is complete control, read-out: Corn plant response rating)?
**A.** Its plant injury at 500 g/ha is 80%.

**Q.** What about the pest or weed control at 125 g/ha ([10]; 125 g ai/ha, visual injury vs untreated controls after approx. 10 d, 0 = no effect, 100 = complete control, read-out: Foxtail, Giant plant response rating (0 to 100 scale)) of the same molecule?
**A.** The pest or weed control at 125 g/ha was 80%.

**Q.** And the pest or weed control at 500 g/ha ([10]; 500 g ai/ha, 0 to 100 scale, 0 is no effect, 100 is complete control, read-out: Foxtail, Giant plant response rating)?
**A.** Its pest or weed control at 500 g/ha is 80%.

**Q.** What about the pest or weed control at 125 g/ha ([11]; 125 g ai/ha, visual injury vs untreated controls after approx. 10 d, 0 = no effect, 100 = complete control, read-out: Pigweed plant response rating (0 to 100 scale)) of the same molecule?
**A.** Its pest or weed control at 125 g/ha is 0%.

**Q.** What about the pest or weed control at 500 g/ha ([11]; 500 g ai/ha, 0 to 100 scale, 0 is no effect, 100 is complete control, read-out: Pigweed plant response rating) of the same molecule?
**A.** Its pest or weed control at 500 g/ha is 0%.

**Q.** And the pest or weed control at 125 g/ha ([12]; 125 g ai/ha, visual injury vs untreated controls after approx. 10 d, 0 = no effect, 100 = complete control, read-out: Ragweed plant response rating (0 to 100 scale))?
**A.** The pest or weed control at 125 g/ha was 0%.

**Q.** And the pest or weed control at 500 g/ha ([12]; 500 g ai/ha, 0 to 100 scale, 0 is no effect, 100 is complete control, read-out: Ragweed plant response rating)?
**A.** The pest or weed control at 500 g/ha was 0%.

**Q.** What about the pest or weed control at 125 g/ha ([13]; 125 g ai/ha, visual injury vs untreated controls after approx. 10 d, 0 = no effect, 100 = complete control, read-out: Ryegrass, Italian plant response rating (0 to 100 scale)) of the same molecule?
**A.** The pest or weed control at 125 g/ha was 0%.

**Q.** And the pest or weed control at 500 g/ha ([13]; 500 g ai/ha, 0 to 100 scale, 0 is no effect, 100 is complete control, read-out: Ryegrass, Italian plant response rating)?
**A.** Its pest or weed control at 500 g/ha is 30%.

**Q.** What about the plant injury at 125 g/ha ([14]; 125 g ai/ha, visual injury vs untreated controls after approx. 10 d, 0 = no effect, 100 = complete control, read-out: Wheat plant response rating (0 to 100 scale)) of the same molecule?
**A.** Its plant injury at 125 g/ha is 30%.

**Q.** What about the plant injury at 500 g/ha ([14]; 500 g ai/ha, 0 to 100 scale, 0 is no effect, 100 is complete control, read-out: Wheat plant response rating) of the same molecule?
**A.** Its plant injury at 500 g/ha is 40%.
